In publication PMC4289911, “[^68Ga]FSC-(RGD)3 a trimeric RGD peptide for imaging αvβ3 integrin expression based on a novel siderophore derived chelating scaffold—synthesis and evaluation” (Nuclear Medicine and Biology, 2015):
Where two headings read alike, the source gives them in different places.

Experiments:
[1] = target: T1, αvβ3 integrin (Homo sapiens, UniProt P05106+P06756); settings: comparison value; read-out: IC50, binding affinity for αvβ3 integrin; cited from earlier work
T1 construct: purchased Millipore-Chemicon, Temecula, CA, USA
Description: A high binding affinity to the isolated αvβ3 integrin for [^68Ga]FSC-(RGD)3 was found. […] A remarkable enhancement of internalized activity in comparison to [^68Ga]NODAGA-RGD or other monomeric RGD derivatives, [16] was observed. Moreover, ...

[2] = target: T1, αvβ3 integrin; assay: Binding affinity for immobilized αvβ3 integrin, displacement of [125I]c(RGDyV); settings: isolated αvβ3 integrin coated on 96-well plates, radioligand [125I]c(RGDyV), 0.001 to 100 nM peptide, three independent measurements
Experimental: In vitro binding affinities of FSC-(RGD)3 and cyclo(-Arg-Gly-Asp-DTyr-Val-) (c(RGDyV)) as control were determined by using isolated αvβ3 integrin (Millipore-Chemicon, Temecula, CA, USA) and ^125I labeled c(RGDyV) as radioligand. The detailed procedure can be found in [16]. Briefly, 96-well plates (Nunc, Thermo Fisher Scientific, Vienna, Austria) were coated for 16 hours at 4 °C with the αvβ3 integrin. Subsequently, the immobilized receptors were incubated with [^125I]c(RGDyV) and increasing concentrations of the corresponding peptide ranging from 0.001 to 100 nM. The unbound fraction of radioligand was washed out, and receptor bound activity was obtained treating the wells with sodium hydroxide (NaOH) solution (2 M). IC50 values were determined by fitting the percent inhibition using OriginPro 8.5 software (Northhampton, MA, USA). Three independent measurements were made.

T1 sequence (P06756 31-889 limits assumed): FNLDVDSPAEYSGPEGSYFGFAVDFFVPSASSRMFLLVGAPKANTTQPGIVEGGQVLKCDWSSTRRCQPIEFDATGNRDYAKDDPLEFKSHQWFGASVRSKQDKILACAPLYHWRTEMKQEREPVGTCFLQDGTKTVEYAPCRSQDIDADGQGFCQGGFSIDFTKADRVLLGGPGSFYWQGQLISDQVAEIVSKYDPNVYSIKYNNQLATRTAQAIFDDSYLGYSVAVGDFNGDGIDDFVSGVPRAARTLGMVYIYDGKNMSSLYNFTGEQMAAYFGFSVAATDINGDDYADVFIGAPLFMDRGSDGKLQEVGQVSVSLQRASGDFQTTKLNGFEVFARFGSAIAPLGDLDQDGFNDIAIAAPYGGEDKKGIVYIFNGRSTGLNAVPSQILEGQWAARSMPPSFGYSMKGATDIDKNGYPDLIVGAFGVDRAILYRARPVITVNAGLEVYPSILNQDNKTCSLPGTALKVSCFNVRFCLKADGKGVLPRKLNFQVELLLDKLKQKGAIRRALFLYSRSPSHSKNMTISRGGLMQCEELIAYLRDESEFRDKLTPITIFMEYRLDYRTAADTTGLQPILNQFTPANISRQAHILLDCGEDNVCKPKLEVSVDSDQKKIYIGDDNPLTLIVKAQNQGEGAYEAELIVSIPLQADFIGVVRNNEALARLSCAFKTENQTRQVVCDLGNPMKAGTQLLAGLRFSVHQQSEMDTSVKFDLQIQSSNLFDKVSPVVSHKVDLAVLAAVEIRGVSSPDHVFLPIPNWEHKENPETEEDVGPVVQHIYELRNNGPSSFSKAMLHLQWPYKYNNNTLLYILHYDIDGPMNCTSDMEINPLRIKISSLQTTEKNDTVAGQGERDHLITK
T1 sequence (P06756 891-1048 partner limits assumed): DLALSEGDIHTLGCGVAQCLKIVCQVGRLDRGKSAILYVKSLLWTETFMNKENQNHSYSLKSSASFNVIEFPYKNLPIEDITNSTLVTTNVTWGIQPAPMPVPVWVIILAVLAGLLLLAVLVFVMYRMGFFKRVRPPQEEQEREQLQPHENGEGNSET
T1 sequence (P05106 27-788): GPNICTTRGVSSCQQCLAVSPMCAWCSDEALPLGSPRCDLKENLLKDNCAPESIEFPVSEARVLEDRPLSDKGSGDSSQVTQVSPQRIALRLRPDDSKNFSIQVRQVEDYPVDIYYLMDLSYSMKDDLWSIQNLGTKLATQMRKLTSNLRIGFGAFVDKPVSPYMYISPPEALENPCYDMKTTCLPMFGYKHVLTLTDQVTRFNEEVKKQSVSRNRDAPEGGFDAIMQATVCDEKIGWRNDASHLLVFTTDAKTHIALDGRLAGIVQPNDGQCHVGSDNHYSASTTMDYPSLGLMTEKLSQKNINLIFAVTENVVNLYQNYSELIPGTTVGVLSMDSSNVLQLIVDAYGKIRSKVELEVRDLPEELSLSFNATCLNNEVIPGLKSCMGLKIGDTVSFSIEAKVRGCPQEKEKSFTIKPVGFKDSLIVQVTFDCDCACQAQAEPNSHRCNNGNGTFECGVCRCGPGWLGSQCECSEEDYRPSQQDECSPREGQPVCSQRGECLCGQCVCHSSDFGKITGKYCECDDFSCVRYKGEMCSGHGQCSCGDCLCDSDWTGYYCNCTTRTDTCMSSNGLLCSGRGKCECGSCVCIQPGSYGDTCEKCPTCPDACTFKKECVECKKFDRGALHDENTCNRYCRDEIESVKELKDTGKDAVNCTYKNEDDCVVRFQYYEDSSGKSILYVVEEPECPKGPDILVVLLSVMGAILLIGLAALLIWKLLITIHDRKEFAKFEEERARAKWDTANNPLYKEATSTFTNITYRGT

IC50 [2] [nM]	Molecule	IC50 [1] [nM]
–	[^68Ga]NODAGA-RGD: established monomeric 68Ga-labeled RGD peptide	4.7
3.2 ± 1.2	CC(C)[C@@H]1NC(=O)[C@@H](Cc2ccc(O)cc2)NC(=O)[C@H](CC(=O)O)NC(=O)CNC(=O)[C@H](CCCNC(=N)N)NC1=O [c(RGDyV), cyclo(-Arg-Gly-Asp-DTyr-Val-)]	–
1.8 ± 0.6	C/C1=C/C(=O)N(O)CCC[C@H](NC(=O)CCC(=O)NCCCC[C@@H]2NC(=O)[C@@H](Cc3ccccc3)NC(=O)[C@H](CC(=O)O)NC(=O)CNC(=O)[C@H](CCCNC(=N)N)NC2=O)C(=O)OCC/C(C)=C\C(=O)N(O)CCC[C@H](NC(=O)CCC(=O)NCCCC[C@@H]2NC(=O)[C@@H](Cc3ccccc3)NC(=O)[C@H](CC(=O)O)NC(=O)CNC(=O)[C@H](CCCNC(=N)N)NC2=O)C(=O)OCC/C(C)=C\C(=O)N(O)CCC[C@H](NC(=O)CCC(=O)NCCCC[C@@H]2NC(=O)[C@@H](Cc3ccccc3)NC(=O)[C@H](CC(=O)O)NC(=O)CNC(=O)[C@H](CCCNC(=N)N)NC2=O)C(=O)OCC1 [FSC-(RGD)3]	–
